The record followed here is publication PMC6385358, “Discovery of ((1,2,4-oxadiazol-5-yl)pyrrolidin-3-yl)ureidyl derivatives as selective non-steroidal agonists of the G-protein coupled bile acid receptor-1” (Scientific Reports, 2019).

One series addresses T1, GPBAR1 (Homo sapiens, UniProt Q8TDU6).
T1 construct: expressed in transfected cells; host or cells: HEK-293T
T1 sequence (Q8TDU6 1-330): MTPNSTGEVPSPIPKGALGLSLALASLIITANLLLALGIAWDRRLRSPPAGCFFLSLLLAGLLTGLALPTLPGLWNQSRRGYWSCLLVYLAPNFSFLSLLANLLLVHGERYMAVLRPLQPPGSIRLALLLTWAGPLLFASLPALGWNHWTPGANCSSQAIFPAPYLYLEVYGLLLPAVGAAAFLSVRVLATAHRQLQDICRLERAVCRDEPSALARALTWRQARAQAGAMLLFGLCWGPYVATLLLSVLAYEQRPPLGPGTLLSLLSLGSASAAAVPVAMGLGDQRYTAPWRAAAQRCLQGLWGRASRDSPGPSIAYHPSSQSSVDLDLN
The series is described as follows: Luciferase reporter (CRE) transactivation assay in HEK-293T cells transfected with GPBAR1. Format: cell-based. As to conditions: dose response 1 to 50 µM, HEK-293T transfected with GPBAR1. Here is the method:
(§1) The activity of compounds 1–14 on GPBAR1 was evaluated in a luciferase reporter assay using HEK-293T cells transfected with GPBAR1. The efficacy of tested compounds (Table 1) was measured using taurolithocholic acid (TLCA) as GPBAR1 reference compound[10],[11]. Each compound was tested at the concentration of 10 μM and transactivation activity of TLCA on a cAMP responsive element (CRE) (i.e. TGR5/GPBAR1) was considered equal to 100%. […] Thus, 9 and 10 (Table 1) turned out to be the most promising derivatives considering their low EC50 values and high activity efficacy. To further characterize the pharmacological properties of these compounds, we expanded their in vitro profile to common off-targets for bile acid receptor ligands.
Transactivation assay on HEK-293T cells was performed to investigate GPBAR1 activation, using compound 1–14 and TLCA as positive control at 10 µM, as previously reported.
Supplementary Figure S4. HEK-293T cells were transiently transfected with GPBAR1 and a reporter gene containing a cAMP responsive element in front of the luciferase gene. Cells were stimulated with compounds A-L (10 μM). TLCA (10 μM) was used as positive control. Luciferase activity served as a measure of the rise in intracellular cAMP following activation of GPBAR1. In all panels, results are expressed as mean ± standard error. ^∗p < 0.05 versus not treated cells (NT).

In series [1] the test system is pro-glucagon mRNA in GLUTag cells. In words: RT-PCR of pro-glucagon mRNA expression in GLUTag cells. Format: cell-based, mouse. The note with it: 10 μM. Here is the method:
as §1
Figure 3 (A) Dose response curves of compounds 9 and 10 (concentrations ranging from 1 to 50 µM) in luciferase reporter assay. (B) Real-time PCR analysis of mRNA expression of Pro-glucagon in GLUTag cells treated with compounds 9 and 10 at 10 μM, and TLCA used as a positive control (10 μM). Values are normalized to GAPDH and are expressed relative to those of not treated cells (NT) which are arbitrarily settled to 1. The relative mRNA expression is expressed as 2^(−ΔΔCt). (C) Specificity of compounds 9 and 10 at 10 μM dose in luciferase reporter assays versus PPARα and PPARγ using Gemfibrozil (GEM, 10 μM) and Rosiglitazone (ROSI, 100 nM) as positive controls respectively. (D) Specificity of compounds 9 and 10 at 10 μM in luciferase reporter assays versus LXRα and LXRβ using GW3965 (GW, 10 μM) as positive control. (E) Specificity of compounds 9 and 10 at 10 μM in luciferase reporter assays versus FXR using CDCA (10 μM) as positive control; (F) Specificity of compounds 9 and 10 at 10 μM in luciferase reporter assays versus PXR using Rifaximin (Rifax, 10 μM) as positive control.
Evaluation of proglucagon mRNA expression was performed in RT-PCR on GLUTag cells (1 × 10^6 cells/well in a 6 well plate) as previously reported[34],[47]. The relative mRNA expression was calculated and expressed as 2^−(ΔΔCt). […]

In the next series the target is T2, PXR (Homo sapiens, UniProt O75469).
T2 construct: host or cells: HepG2
T2 sequence (O75469 1-434): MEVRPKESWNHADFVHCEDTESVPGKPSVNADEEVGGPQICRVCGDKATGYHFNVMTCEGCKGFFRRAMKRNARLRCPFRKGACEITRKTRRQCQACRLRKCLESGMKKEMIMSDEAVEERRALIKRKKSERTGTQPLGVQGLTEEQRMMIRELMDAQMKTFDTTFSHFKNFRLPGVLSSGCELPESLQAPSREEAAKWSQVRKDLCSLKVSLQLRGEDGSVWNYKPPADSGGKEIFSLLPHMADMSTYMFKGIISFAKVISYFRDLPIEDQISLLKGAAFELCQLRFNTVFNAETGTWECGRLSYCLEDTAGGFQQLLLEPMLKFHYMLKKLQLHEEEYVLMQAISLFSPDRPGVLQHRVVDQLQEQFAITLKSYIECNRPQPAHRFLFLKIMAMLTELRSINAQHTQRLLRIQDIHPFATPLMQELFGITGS
The series is described as follows: Luciferase reporter specificity assay versus PXR on HepG2 cells. Format: cell-based. The note with it: 10 μM. Here is the method:
as §1
Figure 3 (A) Dose response curves of compounds 9 and 10 (concentrations ranging from 1 to 50 µM) in luciferase reporter assay. (B) Real-time PCR analysis of mRNA expression of Pro-glucagon in GLUTag cells treated with compounds 9 and 10 at 10 μM, and TLCA used as a positive control (10 μM). Values are normalized to GAPDH and are expressed relative to those of not treated cells (NT) which are arbitrarily settled to 1. The relative mRNA expression is expressed as 2^(−ΔΔCt). […]
The specificity of compounds 9 and 10 versus PPARα, PPARγ, LXRα, LXRβ, FXR and PXR was determined in luciferase reporter gene assays as previously reported[29],[31].

In turn, `O=C(NC1CCCCC1)N[C@@H]1CN[C@H](c2nc(-c3ccccc3)no2)C1` [Compound 10] showed an EC50 at GPBAR1 of 4.6 µM. Also, the “Induction of pro-glucagon mRNA expression” value in series [1] is “effective in inducing the expression of pro-glucagon mRNA”. The “Efficacy in inducing pro-glucagon mRNA expression compared with TLCA” value in series [1] (TLCA 10 μM) is on record as “same efficacy of TLCA”. Further, the PXR transactivation result on PXR was “unable to induce”.
At GPBAR1, `O=C(Nc1ccc(Cl)cc1)N[C@@H]1CN[C@H](c2nc(-c3ccccc3)no2)C1` [Compound 9] displayed an EC50 of 3.5 µM. Also, the “Induction of pro-glucagon mRNA expression” value in series [1] is “effective in inducing the expression of pro-glucagon mRNA”. Moreover, at PXR, the PXR transactivation entry is “unable to induce”.
